# Data as given in US20220408724A1, “METHOD FOR CONTROLLING METABOLISM OF BRANCHED FATTY ACID” (KAO CORPORATION, priority 2019, published 2022).
# Values joined by “and” are separate entries in the source; they are usually repeats but may differ in a detail not shown here. Equal entries are not always repeated.
# Columns and labels:
# [1] = tested on: Moraxella osloensis; assay: Examination example: suppression of metabolism of 14-methylhexadecanoic acid, components (a) and (b)/(b′); type: cell-based; conditions: single agent 100 μg/fabric g
# Protocol: The suppression of metabolism of 14-methylhexadecanoic acid by bacteria of the genus Moraxella and the suppression of a metabolite therefrom were tested in the following manner.
# Moraxella osloensis (strain isolated from clothing) was precultured on an SCD-LP agar medium (NIHON PHARMACEUTICAL CO., LTD.) at 37° C.; for 24 hours, and a bacterial suspension of 10^6 (CFU/ml) was prepared by using an NB liquid medium (Difco) diluted to 1/20 with ion exchange water.
# A methanol solution in which 14-methylhexadecanoic acid (SIGMA-ALDRICH) was dissolved was added dropwise to 3 cm×3 cm pieces of sterilized plain-weave cotton fabric to make it adhered to the fabric. The adhesion amount of 14-methylhexadecanoic acid was set to 10 μg per piece of the plain-weave cotton fabric (100 μg/fabric g). Further, a methanol solution in which component (a) was dissolved, and then, a methanol solution in which component (b) or (b′) was dissolved were added dropwise to the fabric to which 14-methylhexadecanoic acid adhered, and it was thereafter dried for an hour. This fabric was placed in a sterilized screw tube bottle No. 3 (Maruemu Corporation) and 100 μl of the bacterial suspension was inoculated thereto, and culture was carried out under 37° C.; conditions for 21 hours.
# 3 ml of methanol was added to the screw tube bottle after culture, and extraction was carried out under ultrasonic irradiation for 30 minutes (20° C.). The extraction liquid was mixed with a (trimethylsilyl)diazomethane hexane solution (FUJIFILM Wako Pure Chemical Corporation) at 9:1 (volume ratio) and left overnight under room temperature and dark place conditions. After that, 14-methylhexadecanoic acid remaining on the fabric was quantified by GC. The quantification conditions for GC are as follows. • GC: Agilent 6890N • GC column: Agilent DB-1 30 m×250 μm×0.25 μm • Temperature rise condition: 50° C. (held for 3 minutes)-(10° C./min)-300° C. (held for 5 minutes) • Sample injection volume: 1 μl • Split ratio: 1:12 • Detector: FID
# The residual amount of 14-methylhexadecanoic acid after culture on the fabric to which each metabolism controlling agent was added was quantified, and the ratio of the residual amount to that of 14-methylhexadecanoic acid in the case of adding no metabolism controlling agent (control) was calculated as a metabolism suppression rate (%). The higher a numerical value thereof is, the more the metabolism is suppressed. Note that the metabolism suppression rate was determined by the following formula:
# Metabolism suppression rate(%)=[1−(100−A)/(100−B)]×100 • A: residual amount of 14-methylhexadecanoic acid of reference or examination example (μg/fabric g) • B: residual amount of 14-methylhexadecanoic acid of control (μg/fabric g)
# A control is an example in which none of component (a), (b) or (b′) is added, and references 1-1, 2-1, 3-1 and 4-1 qualify as this (the same applies hereinafter). In these controls, the metabolism suppression rate is 0′.
# [2] = tested on: Staphylococcus aureus; assay: Suppression of metabolite 4-methylhexanoic acid from 14-methylhexadecanoic acid; type: cell-based
# Protocol: After culture on fabric prepared in the same manner as in the above (1), 3 ml of methanol was added, and extraction was carried out under ultrasonic irradiation for 30 minutes (20° C.). The extraction liquid was mixed with (a 1000 ppm methanol solution of) an ADAM reagent of Funakoshi Co., Ltd. at 1:1 (volume ratio) and left overnight under room temperature and dark place conditions. After that, 4-methyl-3-hexenoic acid as a metabolite from 14-methylhexadecanoic acid was quantified by HPLC. The quantification conditions are as follows.
# The production amount of 4-methyl-3-hexenoic acid after culture on the fabric to which each metabolism controlling agent was added was quantified, and the ratio of the production amount to that of 4-methyl-3-hexenoic acid in the case of adding no metabolism controlling agent (control) was calculated as a metabolite suppression rate (%). The higher a numerical value thereof is, the more the metabolism is suppressed. Note that the metabolite suppression rate was determined by the following formula:
# Metabolite suppression rate(%)=100×[(D−C)/D] • C: production amount of metabolite of example or comparative example (μg/fabric g) • D: production amount of metabolite of control (μg/fabric g)
# The metabolism of 14-methylhexadecanoic acid by bacteria of the genus Staphylococcus (Staphylococcus aureus) was tested in the same manner as in example 1.
# In this example, Staphylococcus aureus (strain isolated from clothing) was used as a microorganism.
# Further, in this example, a bacterial suspension of 10^7 (CFU/ml) prepared by using an NB liquid medium diluted to 1/10 with ion exchange water was used as a bacterial suspension.
# Further, in this example, 4-methylhexanoic acid was quantified as a metabolite from 14-methylhexadecanoic acid, and the metabolite suppression rate was determined in the same manner as in example 1.
# Note that, in this example, C12OH (1-dodecanol) was used as the metabolism controlling agent.
structure (smiles),measurement,setting,value
"CCCCCCCCCCCCO [Example C12OH, 1-dodecanol]",Metabolism of branched fatty acid: Residual amount (μg/fabric g),[1]; 14-methylhexadecanoic acid,59 μg/fabric g
same,Metabolism of branched fatty acid: Metabolism suppression rate (%),[1],33%
same,Metabolite suppression rate (%),[2]; agent 100 μg/fabric g,10.00%
same,Metabolite suppression rate (%),[2]; agent 250 μg/fabric g,74% and 64.10%
same,Metabolite suppression rate (%),[2]; agent 500 μg/fabric g,93.20%
